Results taken from ChEMBL document CHEMBL4342418, “1,2,3-Triazole-containing hybrids as potential anticancer agents: Current developments, action mechanisms and structure-activity relationships” (Eur J Med Chem, 2019).
≈ marks a conversion by molar mass, not a printed value.

Experiments:
A549 [1] = assay: Antiproliferative activity against human A549 cells assessed as reduction in cell viability after 48 hrs by SRB assay; assay type: functional, cell-based; settings: A549, 48 h
HCT-116 [2] = assay: Antiproliferative activity against human HCT116 cells assessed as reduction in cell viability after 48 hrs by SRB assay; assay type: functional, cell-based; settings: HCT-116, 48 h
MCF7 [3] = assay: Antiproliferative activity against human MCF7 cells assessed as reduction in cell viability after 48 hrs by SRB assay; assay type: functional, cell-based; settings: MCF7, 48 h
HT-29 [4] = assay: Antiproliferative activity against human HT-29 cells assessed as reduction in cell viability after 48 hrs by SRB assay; assay type: functional, cell-based; settings: HT-29, 48 h
[5] = Antiproliferative activity against BAEC cells assessed as reduction in cell viability after 3 days by coulter counting method; assay type: functional, cell-based; settings: Bos taurus, 72 h
L1210 = assay: Antiproliferative activity against mouse L1210 cells assessed as reduction in cell viability after 3 days by coulter counting method; assay type: functional, cell-based; settings: L1210, 72 h
MCF7 [6] = assay: Antiproliferative activity against human MCF7 cells assessed as reduction in cell viability after 72 hrs by MTT assay; assay type: functional, cell-based; settings: MCF7, 72 h
HT-29 [7] = assay: Antiproliferative activity against human HT-29 cells assessed as reduction in cell viability after 48 hrs by MTT assay; assay type: functional, cell-based; settings: HT-29, 48 h
PC-3 [8] = assay: cells; assay type: functional, cell-based; settings: Homo sapiens, PC-3, 48 h
Description: Antiproliferative activity against human PC3 cells assessed as reduction in cell viability after 48 hrs by MTT assay

HGC-27 = assay: Antiproliferative activity against human HGC27 cells assessed as reduction in cell viability after 48 hrs by MTT assay; assay type: functional, cell-based; settings: HGC-27, 48 h
A549 [9] = assay: Antiproliferative activity against human A549 cells assessed as reduction in cell viability after 72 hrs by MTT assay; assay type: functional, cell-based; settings: A549, 72 h
A549/TR = assay: Antiproliferative activity against human A549/TR cells assessed as reduction in cell viability after 72 hrs by MTT assay; assay type: functional, cell-based
A549/CDDP = assay: Antiproliferative activity against human A549/CDDP cells assessed as reduction in cell viability after 72 hrs by MTT assay; assay type: functional, cell-based
HepG2 [10] = assay: Antiproliferative activity against human HepG2 cells assessed as reduction in cell viability after 72 hrs by MTT assay; assay type: functional, cell-based; settings: HepG2, 72 h
HCT-116 [11] = assay: Antiproliferative activity against human HCT116 cells assessed as reduction in cell viability after 72 hrs by MTT assay; assay type: functional, cell-based; settings: HCT-116, 72 h
U-251 = assay: Antiproliferative activity against human U251 cells assessed as reduction in cell viability after 72 hrs by MTT assay; assay type: functional, cell-based; settings: U-251, 72 h
MCF7 [12] = assay: cells; assay type: functional, cell-based; settings: Homo sapiens
Description: Antiproliferative activity against human MCF7 cells by MTT assay

PC-3 [13] = assay: Antiproliferative activity against human PC3 cells assessed as reduction in cell viability after 24 hrs by MTT assay; assay type: functional, cell-based; settings: PC-3, 24 h
MDA-MB-231 [14] = assay: Antiproliferative activity against human MDA-MB-231 cells assessed as reduction in cell viability after 24 hrs by MTT assay; assay type: functional, cell-based; settings: MDA-MB-231, 24 h
HepG2 [15] = assay: Antiproliferative activity against human HepG2 cells by MTT assay; assay type: functional, cell-based
A549 [16] = assay: Antiproliferative activity against human A549 cells assessed as reduction in cell viability after 48 hrs by MTT assay; assay type: functional, cell-based; settings: A549, 48 h
A549 [17] = assay: cells; assay type: functional, cell-based; settings: Homo sapiens
Description: Antiproliferative activity against human A549 cells by MTT assay

HBL-100 = assay: Antiproliferative activity against human HBL100 cells by MTT assay; assay type: functional, cell-based
HeLa [18] = assay: Antiproliferative activity against human HeLa cells by MTT assay; assay type: functional, cell-based
SW1573 = assay: Antiproliferative activity against human SW1573 cells by MTT assay; assay type: functional, cell-based
T47D = assay: Antiproliferative activity against human T47D cells by MTT assay; assay type: functional, cell-based
WiDr = assay: Antiproliferative activity against human WiDr cells by MTT assay; assay type: functional, cell-based
hTERT-BJ = assay: Cytotoxicity activity against human hTERT-BJ cells by MTT assay; assay type: cell-based
HeLa [19] = assay: Antiproliferative activity against human HeLa cells assessed as reduction in cell viability after 24 hrs by MTT assay; assay type: functional, cell-based
HepG2 [20] = assay: Antiproliferative activity against human HepG2 cells assessed as reduction in cell viability after 24 hrs by MTT assay; assay type: functional, cell-based; settings: HepG2, 24 h
U-87 MG = assay: Antiproliferative activity against human U87MG cells assessed as reduction in cell viability after 48 hrs by MTT assay; assay type: functional, cell-based, U-87MG ATCC
MGC-803 = assay: Antiproliferative activity against human MGC803 cells by MTT assay; assay type: functional, cell-based
SK-N-SH = assay: Antiproliferative activity against human SK-N-SH cells by MTT assay; assay type: functional, cell-based
A549 [21] = assay: Antitumour activity against human A549 cells xenografted in Kunming mice assessed as tumour growth inhibition at 20 mg/kg, iv bid administered and measured after week relative to control; assay type: functional; settings: Mus musculus, read-out: TGI
MDA-MB-231 [22] = assay: Antiproliferative activity against human MDA-MB-231 cells assessed as reduction in cell viability after 72 hrs by MTT assay; assay type: functional, cell-based; settings: MDA-MB-231, 72 h, read-out: IC50
ECa-109 cell line = assay: Antiproliferative activity against human EC109 cells by MTT assay; assay type: functional, cell-based
[23] = Antiproliferative activity against human HCG27 cells by MTT assay; assay type: functional, cell-based
MKN-28 = assay: Antiproliferative activity against human MKN28 cells by MTT assay; assay type: functional, cell-based
MKN-45 = assay: Antiproliferative activity against human MKN45 cells by MTT assay; assay type: functional, cell-based
MDA-MB-468 = assay: Antiproliferative activity against human MDA-MB-468 cells assessed as reduction in cell viability after 72 hrs by MTT assay; assay type: functional, cell-based; settings: MDA-MB-468, 72 h
MCF7 [24] = assay: Potency index, ratio of Sorafenib IC50 to test compound IC50 for antiproliferative activity against human MCF7 cells; assay type: functional
HT-29 [25] = assay: Potency index, ratio of Sorafenib IC50 to test compound IC50 for antiproliferative activity against human HT-29 cells; assay type: functional
HT-29 [26] = assay: Antiproliferative activity against human HT-29 cells assessed as reduction in cell viability after 72 hrs by MTT assay; assay type: functional, cell-based; settings: HT-29, 72 h
DU-145 = assay: Antiproliferative activity against human DU145 cells by SRB assay; assay type: functional, cell-based
HeLa [27] = assay: Antiproliferative activity against human HeLa cells by SRB assay; assay type: functional, cell-based
HepG2 [28] = assay: Antiproliferative activity against human HepG2 cells by SRB assay; assay type: functional, cell-based
A549 [29] = assay: Antiproliferative activity against human A549 cells by SRB assay; assay type: functional, cell-based
SK-OV-3 = assay: Antiproliferative activity against human SKOV3 cells by SRB assay; assay type: functional, cell-based
MCF7 [30] = assay: Antiproliferative activity against human MCF7 cells by SRB assay; assay type: functional, cell-based
MCF7-DOX = assay: Antiproliferative activity against human MCF7/Dox cells by SRB assay; assay type: functional, cell-based

In the case of O=C(/C=C/c1cn(-c2ccccc2)nc1-c1ccccc1)OCc1cn(-c2ccc([N+](=O)[O-])cc2)nn1, the IC50 (A549 [1]) is reported as 1.76 to 9.46 µM, the IC50 (HCT-116 [2]) is reported as 1.76 to 9.46 µM and the IC50 (MCF7 [3]) is reported as 1.76 to 9.46 µM. For the same compound, the IC50 (HT-29 [4]) was 1.76 to 9.46 µM.

Compound CS(=O)(=O)c1ccc(-c2cn(-c3ccc(Cl)c(-c4ccccn4)c3)nn2)c(Cl)c1 has an IC50 [5] of 40 to 82 µM and an IC50 (L1210) of 40 to 82 µM.

Work on COc1cc(-c2nc(Cn3cc(CN4C(=O)c5ccc(C)cc5C4=O)nn3)cc3c2[nH]c2ccccc23)cc(OC)c1OC yielded an IC50 (MCF7 [6]) of 3.67 to 26.5 µM, an IC50 (HT-29 [7]) of 3.67 to 26.5 µM and an IC50 (PC-3 [8]) of 3.67 to 26.5 µM. The IC50 (HGC-27) was 3.67 to 26.5 µM.

For CC(C)=CCC[C@]1(C)C=Cc2c(O)c3c(c(CC=C(C)C)c2O1)O[C@]12C(=C[C@@H]4C[C@H]1C(C)(C)O[C@@]2(C/C=C(/C)C(=O)O)C4=O)C3=O [GAMBOGIC ACID], the IC50 (A549 [9]) was 0.29 to 4.67 µM, the IC50 (A549/TR) was 0.29 to 4.67 µM and the IC50 (A549/CDDP) was 0.29 to 4.67 µM. The IC50 (HepG2 [10]) was 0.29 to 4.67 µM, the IC50 (HCT-116 [11]) was 0.29 to 4.67 µM and the IC50 (U-251) was 0.29 to 4.67 µM.

With CS(=O)(=O)c1ccc(-c2cn(-c3cccc(-c4ccccn4)c3)nn2)cc1 the IC50 [5] was 100 µM and the IC50 (L1210) was 100 µM.

For CC[C@@]1(O)C(=O)OCc2c1cc1n(c2=O)Cc2cc3ccccc3nc2-1 [CAMPTOTHECIN], the IC50 (A549 [1]) was 0.03 to 0.8 µM, the IC50 (HCT-116 [2]) was 0.03 to 0.8 µM and the IC50 (MCF7 [3]) was 0.03 to 0.8 µM. For the same compound, the IC50 (HT-29 [4]) was 0.03 to 0.8 µM.

In the case of O=c1[nH]cc(F)c(=O)[nH]1 [FLUOROURACIL], the IC50 (MCF7 [12]) is reported as 30 µg/mL (≈ 231 µM), the IC50 (PC-3 [13]) is reported as 1.6 to 1.9 µM and the IC50 (MDA-MB-231 [14]) is reported as 1.6 to 1.9 µM. The IC50 (HepG2 [15]) was 7.22 to 10.3 µM, the IC50 (A549 [16]) was 2.42 to 3.61 µM and the IC50 (A549 [17]) was 4.3 to 49 µM. It also gave an IC50 (HBL-100) of 4.3 to 49 µM, an IC50 (HeLa [18]) of 4.3 to 49 µM and an IC50 (SW1573) of 4.3 to 49 µM. The IC50 (T47D) was 4.3 to 49 µM, the IC50 (WiDr) was 4.3 to 49 µM and the IC50 (hTERT-BJ) was 5.5 µM. The IC50 (HeLa [19]) was 1.6 to 1.9 µM, the IC50 (HepG2 [20]) was 1.6 to 1.9 µM and the IC50 (MCF7 [6]) was 7.5 to 12.7 µM. The IC50 (HT-29 [7]) was 2.42 to 3.61 µM, the IC50 (PC-3 [8]) was 2.42 to 3.61 µM and the IC50 (U-87 MG) was 2.42 to 3.61 µM. The IC50 (MGC-803) was 6.5 to 14.6 µM, the IC50 (SK-N-SH) was 7.22 to 10.3 µM and the inhibition in vivo at 20 mg/kg (A549 [21]) was 64.7%. It also gave an IC50 (MDA-MB-231 [22]) of 7.5 to 12.7 µM, an IC50 (ECa-109 cell line) of 6.5 to 14.6 µM and an IC50 [23] of 6.5 to 14.6 µM. It also gave an IC50 (MKN-28) of 6.9 to 19.4 µM, an IC50 (MKN-45) of 6.9 to 19.4 µM and an IC50 (MDA-MB-468) of 7.5 to 12.7 µM.

For CNC(=O)c1cc(Oc2ccc(-n3cc(-c4cccc(F)c4)nn3)cc2)ccn1, the IC50 (MCF7 [6]) was 0.2 to 0.84 µM, the “Ratio IC50” value (MCF7 [24]) was 6.2 - 131.2 and the “Ratio IC50” value (HT-29 [25]) was 6.2 - 131.2. It also gave an IC50 (HT-29 [26]) of 0.2 to 0.84 µM.

C=CCC1CC(Cc2cn([C@@H](Cc3ccccc3)c3nc(C(=O)OC)co3)nn2)CC(O[Si](C)(C)C(C)(C)C)C1 (stereo not given in full) showed an IC50 (A549 [17]) of 3.1 to 6.6 µM, an IC50 (HBL-100) of 3.1 to 6.6 µM and an IC50 (HeLa [18]) of 3.1 to 6.6 µM. For the same compound, the IC50 (SW1573) was 3.1 to 6.6 µM, the IC50 (T47D) was 3.1 to 6.6 µM and the IC50 (WiDr) was 3.1 to 6.6 µM. For the same compound, the IC50 (hTERT-BJ) was 53 µM.

For COc1ccc(-n2cc(CN3c4ccccc4Sc4ccccc43)nn2)c([N+](=O)[O-])c1, the IC50 (MGC-803) was 1.2 to 3.5 µM, the IC50 (MKN-28) was 1.2 to 3.5 µM and the IC50 (MKN-45) was 1.2 to 3.5 µM.

Cc1ccc2c(c1)/C(=N/O)C(=O)N2CCOCCn1cc(COc2ccc3c(C)cc(=O)oc3c2)nn1 showed an IC50 (DU-145) of 15.5 to 31.5 µM, an IC50 (HeLa [27]) of 15.5 to 31.5 µM and an IC50 (HepG2 [28]) of 15.5 to 31.5 µM. For the same compound, the IC50 (A549 [29]) was 15.5 to 31.5 µM, the IC50 (SK-OV-3) was 15.5 to 31.5 µM and the IC50 (MCF7 [30]) was 15.5 to 31.5 µM. The IC50 (MCF7-DOX) was 15.5 to 31.5 µM.
